Key:
[1] = molecular target: T1, Trace amine-associated receptor 5 (Mus musculus, UniProt Q5QD14); assay: Antagonist activity at mouse TAAR5 expressed in HEK293 cells assessed as inhibition of agonist induced cAMP release preincubated for 5 mins followed by addition of agonist by BRET assay; format: functional, cell-based
T1 sequence (Q5QD14 whole entry): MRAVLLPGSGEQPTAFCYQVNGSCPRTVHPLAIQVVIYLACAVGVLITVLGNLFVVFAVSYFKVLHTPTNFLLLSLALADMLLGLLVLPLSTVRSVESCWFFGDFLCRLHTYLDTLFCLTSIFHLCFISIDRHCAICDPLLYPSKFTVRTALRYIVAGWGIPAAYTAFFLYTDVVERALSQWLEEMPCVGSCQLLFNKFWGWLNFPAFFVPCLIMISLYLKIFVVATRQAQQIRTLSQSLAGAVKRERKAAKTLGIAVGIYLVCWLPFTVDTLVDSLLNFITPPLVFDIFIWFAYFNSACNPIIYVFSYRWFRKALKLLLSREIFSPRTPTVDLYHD

[2] = molecular target: Trace amine-associated receptor 1 (Mus musculus, UniProt Q923Y8); assay: Antagonist activity at mouse TAAR1 expressed in HEK293 cells assessed as inhibition of agonist induced cAMP release preincubated for 5 mins followed by addition of agonist by BRET assay; format: functional, cell-based
[3] = molecular target: T2, Trace amine-associated receptor 1 (Homo sapiens) (UniProt Q96RJ0); assay: Agonist activity at human TAAR1 expressed in HEK293 cells assessed as increase in cAMP release after 30 mins by BRET assay; format: functional, cell-based
T2 sequence (whole entry): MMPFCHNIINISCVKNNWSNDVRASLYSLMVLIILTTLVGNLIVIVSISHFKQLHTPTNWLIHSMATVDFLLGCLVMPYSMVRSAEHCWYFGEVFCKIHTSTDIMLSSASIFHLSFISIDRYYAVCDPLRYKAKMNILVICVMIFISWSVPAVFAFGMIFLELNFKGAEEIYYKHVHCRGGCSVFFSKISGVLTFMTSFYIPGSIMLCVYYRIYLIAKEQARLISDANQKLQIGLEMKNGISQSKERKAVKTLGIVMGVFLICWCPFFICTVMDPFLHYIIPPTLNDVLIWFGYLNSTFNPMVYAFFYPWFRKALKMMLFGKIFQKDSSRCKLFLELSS

[4] = molecular target: T3, Trace amine-associated receptor 5 (Mus musculus) (UniProt Q5QD14); assay: (§1) Agonist activity at mouse TAAR5 expressed in HEK293 cells assessed as increase in cAMP release after 30 mins by BRET assay relative to control; format: functional, cell-based
T3 sequence (whole entry): T1 sequence (Q5QD14 whole entry)

[5] = molecular target: T1, Trace amine-associated receptor 5; assay: as §1; format: functional, cell-based
[6] = species on record: Mus musculus; assay: Selectivity ratio of IC50 for mouse TAAR1 to IC50 for mouse TAAR5

Sequence of Trace amine-associated receptor 1 (Q923Y8 whole entry): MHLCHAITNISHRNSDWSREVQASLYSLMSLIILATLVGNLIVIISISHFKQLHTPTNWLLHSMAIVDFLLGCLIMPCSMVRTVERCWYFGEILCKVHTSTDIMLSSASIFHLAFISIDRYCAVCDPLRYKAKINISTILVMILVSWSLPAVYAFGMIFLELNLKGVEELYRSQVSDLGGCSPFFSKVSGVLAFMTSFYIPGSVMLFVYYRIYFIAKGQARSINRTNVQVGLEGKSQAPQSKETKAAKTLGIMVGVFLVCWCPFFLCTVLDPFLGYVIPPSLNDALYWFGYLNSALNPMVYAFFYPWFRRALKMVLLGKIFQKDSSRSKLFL

COc1ccccc1OCCNCC1CCC(c2ccccc2)(c2ccccc2)O1 (stereo not drawn) gave an IC50 [1] of 29 µM and an IC50 [2] greater than 100 µM.
NCCc1ccc(Oc2ccc(O)cc2)c(I)c1 was tested, and the fold change (FC) [3] was 16 and the fold change (FC) [4] was 2.
In the case of CN(C)C [TRIMETHYLAMMONIUM], the EC50 [5] is reported as 2.1 µM.
COc1ccccc1N1CCN(CC2CCC(c3ccccc3)(c3ccccc3)O2)CC1 (stereo not drawn) was tested, and the IC50 [1] was 4.8 µM, the IC50 [2] was greater than 100 µM and the Ratio IC50 [6] was greater than 20.
